According to US4025626A, “7-Acyl-3-(ureidoalkyl substituted tetrazolylthiomethyl)-cephalosporins” (SmithKline Corporation, priority 1975, dated 1977):
≈ marks a conversion by molar mass, not a printed value. Like-named read-outs stand apart in the source and are kept apart here.

Experiments:
[1] = test system: E. coli HH 33779; test: in vitro MIC testing; format: cell-based; settings: Escherichia coli, HH33779, two values given
Protocol: (§1) The compounds of Formula I have exceptional antibacterial activity against both Gram-positive and Gram-negative organisms. Minimum inhibitory concentrations (MIC's) range from 0.1 to >200 μg./ml. in in vitro testing. Test results for the compound 7-D-mandelamido-3-[1-(2-ureidoethyl)tetrazol-5-ylthiomethyl]-3-cephem-4-carboxylic acid are given below: […]

[2] = test system: E. coli SK 12140; test: in vitro MIC testing; format: cell-based; settings: Escherichia coli, SK12140, two values given
Protocol: as §1

[3] = test system: Entero. cloacae HH 31254; test: in vitro MIC testing; format: cell-based; settings: Enterobacter cloacae, HH31254, two values given
Protocol: as §1

[4] = test system: Kleb. pneumo. SK 1200; test: in vitro MIC testing; format: cell-based; settings: two values given
Protocol: as §1

[5] = test system: Kleb. pneumo. SK 4200; test: in vitro MIC testing; format: cell-based; settings: two values given
Protocol: as §1

[6] = test system: Proteus morgani 179; test: in vitro MIC testing; format: cell-based; settings: two values given
Protocol: as §1

[7] = test system: Pseudo. aerug. HH 63; test: in vitro MIC testing; format: cell-based; settings: two values given
Protocol: as §1

[8] = test system: S. aureus HH 127; test: in vitro MIC testing; format: cell-based; settings: two values given
Protocol: as §1

[9] = test system: S. aureus SK 23390; test: in vitro MIC testing; format: cell-based; settings: Staphylococcus aureus, SK23390, two values given
Protocol: as §1

[10] = test system: S. villaluz SK 70390; test: in vitro MIC testing; format: cell-based; settings: two values given
Protocol: as §1

[11] = test system: Serratia Marc. ATCC 13880; test: in vitro MIC testing; format: cell-based; settings: ATCC13880, two values given
Protocol: as §1

[12] = test system: Shigella HH 117; test: in vitro MIC testing; format: cell-based; settings: two values given
Protocol: as §1

[13] = test system: Strep. faecalis HH 34358; test: in vitro MIC testing; format: cell-based; settings: Enterococcus faecalis, HH34358, two values given
Protocol: as §1

[14] = test system: E. coli 12140; test: in vivo mouse protection test; settings: Escherichia coli
Protocol: (§2) 4200 upon subcutaneous injection; and 17.5 mg./kg. against E. coli 12140 and 25.5 mg./kg. against Kleb. pneumo. 4200 upon oral administration.

[15] = test system: Kleb. pneumo. 4200; test: in vivo mouse protection test
Protocol: as §2

Q: Which results are given for `NC(=O)NCCn1nnnc1SCC1=C(C(=O)O)N2C(=O)C(NC(=O)[C@H](O)c3ccccc3)[C@H]2SC1` (stereo partly drawn) [7-D-Mandelamido-3-[1-(2-ureidoethyl)tetrazol-5-ylthiomethyl]-3-cephem-4-carboxylic acid]?
A: MIC [1]: 1.6 µg/mL (≈ 2.99 µM); MIC [2]: 0.8 µg/mL (≈ 1.5 µM); MIC [3]: 0.8 µg/mL (≈ 1.5 µM); MIC [4]: 0.4 µg/mL (≈ 0.748 µM); MIC [5]: 0.8 µg/mL (≈ 1.5 µM); MIC [6]: 0.8 µg/mL (≈ 1.5 µM); MIC [7]: > 200 µg/mL; MIC ([8]; S. aureus HH 127): 1.6 µg/mL (≈ 2.99 µM); MIC ([8]; Staphylococcus aureus, HH127, S. aureus HH 127, read-out: MIC): 3.1 µg/mL (≈ 5.8 µM); MIC [9]: 0.4 µg/mL (≈ 0.748 µM); MIC [10]: 25 µg/mL (≈ 46.8 µM); MIC [11]: 25 µg/mL (≈ 46.8 µM); MIC ([12]; Shigella HH 117): 0.2 µg/mL (≈ 0.374 µM); MIC ([12]; Shigella, HH117, Shigella HH 117, read-out: MIC): 0.1 µg/mL (≈ 0.187 µM); MIC [13]: 25 µg/mL (≈ 46.8 µM); ED50 ([14]; E. coli 12140, oral administration): 17.5 mg/kg; ED50 ([14]; sc, E. coli 12140, subcutaneous injection): 0.86 mg/kg; ED50 ([15]; Kleb. pneumo. 4200, oral administration): 25.5 mg/kg; ED50 ([15]; sc, Kleb. pneumo. 4200, subcutaneous injection): 1.34 mg/kg
